Assay results: ChEMBL document CHEMBL1146891, “Preparation of 1-(3-aminobenzo[d]isoxazol-5-yl)-1H-pyrazolo[4,3-d]pyrimidin-7(6H)-ones as potent, selective, and efficacious inhibitors of coagulation factor Xa” (Bioorg Med Chem Lett, 2006)

Experiments:
Coagulation factor X [1] = target: T1, Coagulation factor X (Homo sapiens, UniProt P00742); assay: Binding affinity to human f10a
[2] = Stability at pH 1.0; type: physicochemical; conditions: buffer
[3] = Stability at pH 4.0; type: physicochemical; conditions: buffer
Coagulation factor X [4] = target: T1, Coagulation factor X; assay: Anticoagulant activity in human plasma measured as activated partial thromboplastin time; type: functional, cell-free
[5] = target: Coagulation factor VII/tissue factor (Homo sapiens) (UniProt P08709+P13726); assay: Anticoagulant activity in human plasma measured as prothrombin time; type: functional, cell-free
Prothrombin = Prothrombin (Homo sapiens, UniProt P00734); assay: Binding affinity to human thrombin
Trypsin = Trypsin (Homo sapiens, UniProt P07477+P07478+P35030); assay: Binding affinity to human trypsin; type: protein assay
[6] = target: Vitamin K-dependent protein C (Homo sapiens, UniProt P04070); assay: Binding affinity to human activated protein C
Coagulation factor IX = Coagulation factor IX (Homo sapiens, UniProt P00740); assay: Binding affinity to human f9a
Plasminogen = Plasminogen (Homo sapiens, UniProt P00747); assay: Binding affinity to human plasmin
[7] = target: Tissue-type plasminogen activator (Homo sapiens, UniProt P00750); assay: Binding affinity to human tPA
[8] = target: Urokinase-type plasminogen activator (Homo sapiens, UniProt P00749); assay: Binding affinity to human urokinase
Chymotrypsinogen B = Chymotrypsinogen B (Homo sapiens, UniProt P17538); assay: Binding affinity to human chymotrypsin
Coagulation factor X [9] = target: T2, Coagulation factor X (Oryctolagus cuniculus, UniProt O19045); assay: Binding affinity to rabbit f10a
T2 sequence (O19045 whole entry): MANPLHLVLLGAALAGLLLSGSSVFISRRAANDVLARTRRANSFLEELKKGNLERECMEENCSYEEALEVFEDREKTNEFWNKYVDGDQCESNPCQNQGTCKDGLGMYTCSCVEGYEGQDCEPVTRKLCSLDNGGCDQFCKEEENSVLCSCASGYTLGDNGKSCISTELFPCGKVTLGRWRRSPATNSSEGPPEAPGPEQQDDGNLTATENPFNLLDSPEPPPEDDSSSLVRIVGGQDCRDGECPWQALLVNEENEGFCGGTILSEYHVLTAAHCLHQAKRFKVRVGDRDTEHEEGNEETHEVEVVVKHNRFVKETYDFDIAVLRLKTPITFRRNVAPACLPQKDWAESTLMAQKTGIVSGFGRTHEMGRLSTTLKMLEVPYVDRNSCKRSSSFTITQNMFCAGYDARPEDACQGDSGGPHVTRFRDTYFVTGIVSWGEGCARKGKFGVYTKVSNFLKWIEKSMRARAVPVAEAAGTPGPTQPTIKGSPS

Oryctolagus cuniculus = assay: Inhibition of thrombus formation in iv dosed rabbit arterio-venous shunt model; type: functional, organism-based
[10] = Protein binding in rabbit plasma; type: ADME, organism-based, Oryctolagus cuniculus; conditions: read-out: PPB (converted)

Sequence of Plasminogen (P00747 97-580 limits assumed): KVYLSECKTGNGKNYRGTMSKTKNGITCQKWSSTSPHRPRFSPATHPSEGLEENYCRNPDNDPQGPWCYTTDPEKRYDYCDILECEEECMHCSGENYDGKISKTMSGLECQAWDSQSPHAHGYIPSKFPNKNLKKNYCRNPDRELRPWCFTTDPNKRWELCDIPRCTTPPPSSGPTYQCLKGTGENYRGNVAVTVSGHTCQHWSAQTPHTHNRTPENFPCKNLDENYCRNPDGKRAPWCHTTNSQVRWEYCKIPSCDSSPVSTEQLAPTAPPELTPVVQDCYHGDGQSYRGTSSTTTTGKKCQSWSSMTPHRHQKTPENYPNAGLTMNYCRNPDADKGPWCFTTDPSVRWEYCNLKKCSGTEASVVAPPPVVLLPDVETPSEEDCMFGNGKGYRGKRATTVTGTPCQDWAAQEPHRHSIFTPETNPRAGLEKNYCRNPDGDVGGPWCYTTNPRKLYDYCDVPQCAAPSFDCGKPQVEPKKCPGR
Sequence of Plasminogen (P00747 581-810 limits assumed): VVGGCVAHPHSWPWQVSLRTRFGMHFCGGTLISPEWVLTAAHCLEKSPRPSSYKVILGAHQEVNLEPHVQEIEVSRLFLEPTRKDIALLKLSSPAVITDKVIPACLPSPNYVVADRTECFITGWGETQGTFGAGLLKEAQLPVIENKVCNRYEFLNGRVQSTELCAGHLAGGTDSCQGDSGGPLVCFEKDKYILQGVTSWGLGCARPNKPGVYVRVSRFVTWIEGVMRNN
Sequence of Chymotrypsinogen B (P17538 34-164 limits assumed, other chains not shown): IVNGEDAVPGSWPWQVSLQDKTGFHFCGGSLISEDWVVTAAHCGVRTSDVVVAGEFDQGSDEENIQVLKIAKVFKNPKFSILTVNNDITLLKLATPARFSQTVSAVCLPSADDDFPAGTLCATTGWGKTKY
Sequence of Chymotrypsinogen B (P17538 167-263 limits assumed, other chains not shown): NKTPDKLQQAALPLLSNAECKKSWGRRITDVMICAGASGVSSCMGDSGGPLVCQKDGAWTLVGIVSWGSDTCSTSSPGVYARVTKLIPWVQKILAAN
T1 sequence (P00742 41-179 limits assumed): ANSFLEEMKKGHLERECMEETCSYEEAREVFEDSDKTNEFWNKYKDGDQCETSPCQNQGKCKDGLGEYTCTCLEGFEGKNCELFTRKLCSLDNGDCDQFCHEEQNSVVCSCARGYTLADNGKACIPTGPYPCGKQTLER
T1 sequence (P00742 235-488 limits assumed): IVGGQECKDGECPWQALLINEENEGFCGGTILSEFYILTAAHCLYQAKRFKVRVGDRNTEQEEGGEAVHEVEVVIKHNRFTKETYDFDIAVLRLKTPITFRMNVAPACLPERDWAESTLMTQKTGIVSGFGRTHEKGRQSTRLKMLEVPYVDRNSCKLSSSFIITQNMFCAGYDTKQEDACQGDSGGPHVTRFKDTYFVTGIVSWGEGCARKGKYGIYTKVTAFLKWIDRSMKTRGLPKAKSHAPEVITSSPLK
Sequence of Coagulation factor IX (P00740 47-191 limits assumed): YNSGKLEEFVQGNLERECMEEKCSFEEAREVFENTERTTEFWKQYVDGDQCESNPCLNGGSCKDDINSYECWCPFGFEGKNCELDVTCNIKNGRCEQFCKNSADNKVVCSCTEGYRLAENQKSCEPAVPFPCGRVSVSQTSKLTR
Sequence of Coagulation factor IX (P00740 227-461 limits assumed): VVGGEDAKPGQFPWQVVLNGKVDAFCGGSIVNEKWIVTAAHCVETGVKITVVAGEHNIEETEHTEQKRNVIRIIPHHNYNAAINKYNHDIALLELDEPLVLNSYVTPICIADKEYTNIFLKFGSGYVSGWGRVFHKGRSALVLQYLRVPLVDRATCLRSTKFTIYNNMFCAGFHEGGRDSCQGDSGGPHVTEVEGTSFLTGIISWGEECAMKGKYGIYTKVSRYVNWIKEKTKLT
Sequence of Tissue-type plasminogen activator (P00750 whole entry): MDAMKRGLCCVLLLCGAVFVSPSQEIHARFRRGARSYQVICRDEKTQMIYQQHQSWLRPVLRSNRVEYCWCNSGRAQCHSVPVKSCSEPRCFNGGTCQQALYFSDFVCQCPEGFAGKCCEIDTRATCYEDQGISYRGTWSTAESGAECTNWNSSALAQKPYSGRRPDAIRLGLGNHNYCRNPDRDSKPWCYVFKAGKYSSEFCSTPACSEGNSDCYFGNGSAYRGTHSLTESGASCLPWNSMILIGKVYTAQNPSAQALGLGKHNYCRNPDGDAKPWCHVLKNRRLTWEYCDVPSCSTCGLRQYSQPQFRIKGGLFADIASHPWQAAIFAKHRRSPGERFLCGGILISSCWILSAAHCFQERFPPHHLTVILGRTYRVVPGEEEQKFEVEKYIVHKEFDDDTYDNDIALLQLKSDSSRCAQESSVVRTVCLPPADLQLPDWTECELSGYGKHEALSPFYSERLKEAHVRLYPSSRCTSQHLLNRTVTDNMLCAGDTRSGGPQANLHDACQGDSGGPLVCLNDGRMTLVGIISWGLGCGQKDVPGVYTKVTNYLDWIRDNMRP
Sequence of Vitamin K-dependent protein C (P04070 43-197 limits assumed): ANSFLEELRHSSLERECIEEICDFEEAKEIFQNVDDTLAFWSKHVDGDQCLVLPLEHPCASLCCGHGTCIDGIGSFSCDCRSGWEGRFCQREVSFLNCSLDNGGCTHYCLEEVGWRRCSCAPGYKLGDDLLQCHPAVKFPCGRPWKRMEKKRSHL
Sequence of Vitamin K-dependent protein C (P04070 212-461 limits assumed): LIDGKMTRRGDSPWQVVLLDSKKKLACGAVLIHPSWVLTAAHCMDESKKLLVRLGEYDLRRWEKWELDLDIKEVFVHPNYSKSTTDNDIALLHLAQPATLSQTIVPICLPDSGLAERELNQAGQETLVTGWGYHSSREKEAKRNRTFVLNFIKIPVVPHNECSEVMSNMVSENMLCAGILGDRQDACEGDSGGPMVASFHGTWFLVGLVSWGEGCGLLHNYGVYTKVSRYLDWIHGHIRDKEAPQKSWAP

Structure (SMILES)	Ki (Coagulation factor X [1])	Stability [2]	Stability [3]	2aPTT (Coagulation factor X [4])	2PT [5]	Ki (Prothrombin)	Ki (Trypsin)	Ki [6]	Ki (Coagulation factor IX)	Ki (Plasminogen)	Ki [7]	Ki [8]	Ki (Chymotrypsinogen B)	Ki (Coagulation factor X [9])	ID50 (Oryctolagus cuniculus)	IC50 (Oryctolagus cuniculus; Oryctolagus cuniculus)	fraction unbound [10]
Cc1nn(-c2ccc3onc(N)c3c2)c2c(=O)n(-c3ccc(-c4ccccc4CN(C)C)cc3)cnc12	0.53 nM	97.2%	90.1%	–	–	–	–	–	–	–	–	–	–	–	–	–	–
CN(C)Cc1ccccc1-c1ccc(-n2cnc3c(C(F)(F)F)nn(-c4ccc5onc(N)c5c4)c3c2=O)cc1	0.35 nM	83.2%	72.3%	3.7 µM	2.6 µM	–	–	–	–	–	–	–	–	–	–	–	–
Cc1nc2c(C(F)(F)F)nn(-c3ccc4onc(N)c4c3)c2c(=O)n1-c1ccc(-c2ccccc2CN(C)C)cc1	–	–	–	–	–	130 nM	> 4200 nM	> 37000 nM	37000 nM	> 25000 nM	> 40000 nM	> 40000 nM	> 11000 nM	0.2 nM	1.9 µmol/kg/h	290 nM	0.03
Cc1nn(-c2ccc3onc(N)c3c2)c2c(=O)n(-c3ccc(-c4ccccc4CN(C)C)cc3)c(C)nc12	0.27 nM	89.7%	94.7%	–	–	305 nM	> 4200 nM	19000 nM	> 41000 nM	> 15000 nM	23000 nM	> 13000 nM	960 nM	0.3 nM	2 µmol/kg/h	–	–
Cc1nn(-c2ccc3onc(N)c3c2)c2c(=O)n(-c3ccc(-c4ccccc4CN4CC[C@@H](O)C4)cc3)c(C)nc12	0.37 nM	–	–	–	–	245 nM	> 4200 nM	> 76000 nM	> 41000 nM	> 15000 nM	> 33000 nM	> 13000 nM	580 nM	0.59 nM	2.4 µmol/kg/h	–	0.09
